# Data reported in patent publication US11492413B2, “Switchable antibody conjugate” (Temple University—Of The Commonwealth System of Higher …, priority 2017, dated 2022).
# Where two headings read alike, the source gives them in different places. Non-standard residues stand in square brackets, D forms with d. Residues, ends and D or L forms follow the SMILES beside them. Dolaproine = CO[C@@H]([C@@H]1CCCN1)[C@@H](C)C(=O)O; Dil = CC[C@H](C)[C@H](NC)[C@@H](CC(=O)O)OC; NMeV = CN[C@H](C(=O)O)C(C)C
# What was measured:
# [1] = test system: Her2-positive breast cancer cell line SK-BR-3; assay: In vitro cytotoxicity assay (CellTiter Glo) on SK-BR-3; format: cell-based
# Experimental: SK-BR-3 cell line (ATCC) was cultured and assayed in DMEM (Cellgro) supplemented with 10% (vol/vol) FBS, 100 IU/mL penicillin, and 100 μg/mL streptomycin. Ramos cell line (ATCC) was cultured and assayed in RPMI-1640 media mixed with the same supplements as described above. For cytotoxicity assay, SK-BR-3 cancer cells were plated in flat-bottom 96 well plates at 1000 cells, 90 μL fresh cell media/well, and were incubated overnight at 37° C., 5% CO2. The MMAF compound and protein samples were filtered (0.22 μm, EMD Millipore), serially diluted in PBS buffer as 10× stock solutions, and added in triplicate to cancer cells (10 μL/well). To prevent evaporation, the edges of the plates were filled with 200 μL of bank media. […] The luminescence signals were detected on a Synergy H1 plate reader (BioTek). The viability of the cells treated with PBS buffer was used as a control, the signal of which was normalized as 100%. Ramos cancer cells were plated in flat-bottom 96 well plates at 10000 cells/well, and were directly treated with protein samples and MMAF control compound. The rest of the assay procedure was the same as described above.
# [2] = test system: CD19-positive Burkitt's lymphoma cell line Ramos; assay: In vitro cytotoxicity assay (CellTiter Glo) on Ramos; format: cell-based; settings: 72 hour incubation; mixtures αGCN4-Fab-MMAF:GCN4 fusion at molar ratio 2:1
# Experimental: SK-BR-3 cell line (ATCC) was cultured and assayed in DMEM (Cellgro) supplemented with 10% (vol/vol) FBS, 100 IU/mL penicillin, and 100 μg/mL streptomycin. Ramos cell line (ATCC) was cultured and assayed in RPMI-1640 media mixed with the same supplements as described above. For cytotoxicity assay, SK-BR-3 cancer cells were plated in flat-bottom 96 well plates at 1000 cells, 90 μL fresh cell media/well, and were incubated overnight at 37° C., 5% CO2. The MMAF compound and protein samples were filtered (0.22 μm, EMD Millipore), serially diluted in PBS buffer as 10× stock solutions, and added in triplicate to cancer cells (10 μL/well). To prevent evaporation, the edges of the plates were filled with 200 μL of bank media. The plates were then incubated at 37° C., 5% CO2 for 72 hours, after which the ATP content of each well was measured by CellTiter Glo (Promega). The luminescence signals were detected on a Synergy H1 plate reader (BioTek). The viability of the cells treated with PBS buffer was used as a control, the signal of which was normalized as 100%. Ramos cancer cells were plated in flat-bottom 96 well plates at 10000 cells/well, and were directly treated with protein samples and MMAF control compound. The rest of the assay procedure was the same as described above.
structure (smiles),measurement,setting,value
"CC[C@H](C)[C@@H]([C@@H](CC(=O)N1CCC[C@H]1[C@H](OC)[C@@H](C)C(=O)N[C@@H](Cc1ccccc1)C(=O)O)OC)N(C)C(=O)[C@@H](NC(=O)[C@@H](NC)C(C)C)C(C)C [MMAF, monomethyl auristatin F] (H-[NMeV]V[Dil][Dolaproine]F-OH)",EC50,"[1]; 72 hour incubation, mixtures αGCN4-Fab-MMAF:GCN4 fusion at molar ratio 2:1, read-out: EC50 (nM) on SK-BR-3",50 ± 39 nM
same,EC50,"[1]; range over Ramos and SK-BR-3, 72 hour incubation, read-out: EC50s, medium cytotoxicity of positive control",50 to 89 nM
same,EC50,[2],89 ± 37 nM
